Data reported in patent US9850283B2, “Macrocyclic inhibitors of the PD-1/PD-L1 and CD80(B7-1)/PD-L1 protein/protein interactions” (BRISTOL-MYERS SQUIBB COMPANY, priority 2013, dated 2017).
Positions of bridges follow the written chain, without caps; N, C: chain ends. Non-standard residues stand in square brackets, D forms with d. Residues, ends and D or L forms follow the SMILES beside them. Phe(4-CF3) = N[C@@H](Cc1ccc(C(F)(F)F)cc1)C(=O)O; Ala(4-thiazolyl) = N[C@@H](Cc1cscn1)C(=O)O; Phe(3-Cl) = N[C@@H](Cc1cccc(Cl)c1)C(=O)O; Phe(3-OMe) = COc1cccc(C[C@H](N)C(=O)O)c1; Phe(4-Me) = Cc1ccc(C[C@H](N)C(=O)O)cc1; NMeF = CN[C@@H](Cc1ccccc1)C(=O)O; NMeNle = CCCC[C@H](NC)C(=O)O; Sar = CNCC(=O)O

Columns and labels:
[1] = target: T1, LK35.2-hPD-L1 cells / PE-labeled PD-1-Ig (Homo sapiens, UniProt Q9NZQ7); assay: LK35.2-hPD-L1 cell binding high-content screening assay; format: cell-based; settings: cluster symbol; cell line of CBA not given (LK35.2-hPD-L1 or 293T-hPD-L1); read-out: CBA IC50 cluster
T1 construct: expressed in transfected cells; host or cells: LK35.2 mouse B cell line
T1 sequence (Q9NZQ7 19-290): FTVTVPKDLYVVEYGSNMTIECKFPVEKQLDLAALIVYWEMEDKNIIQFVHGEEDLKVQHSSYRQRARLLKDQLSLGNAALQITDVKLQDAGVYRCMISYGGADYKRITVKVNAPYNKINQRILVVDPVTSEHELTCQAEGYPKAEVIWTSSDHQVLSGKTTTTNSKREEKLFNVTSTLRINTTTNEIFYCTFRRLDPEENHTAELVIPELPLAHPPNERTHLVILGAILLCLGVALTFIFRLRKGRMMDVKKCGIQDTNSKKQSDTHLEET
Outline: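 Readout: high-content imaging of PE-PD-1-Ig bound to LK35.2-hPD-L1 cells. Cells plated overnight (RPMI/10% FCS); compound + 1 nM PE-PD-1-Ig, 1 h, 37 °C; 3× dPBS wash before imaging.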

Human PD-L1/PD-1 = target: T2, Human PD-L1/PD-1 (Homo sapiens, UniProt Q9NZQ7); assay: HTRF PD-1-Ig/PD-L1-His binding assay (human PD-L1); settings: cluster symbol; read-out: HTRF IC50 cluster
T2 construct: made in house; host or cells: HEK293T
T2 sequence (Q9NZQ7 with tags, fused parts or gaps): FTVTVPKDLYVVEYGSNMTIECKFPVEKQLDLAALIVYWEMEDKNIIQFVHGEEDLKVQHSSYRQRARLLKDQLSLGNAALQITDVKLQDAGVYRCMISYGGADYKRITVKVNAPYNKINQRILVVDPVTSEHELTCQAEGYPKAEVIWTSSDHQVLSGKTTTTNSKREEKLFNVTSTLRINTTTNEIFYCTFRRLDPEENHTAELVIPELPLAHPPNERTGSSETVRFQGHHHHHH
Outline: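 Soluble PD-1-Ig binding to PD-L1-His measured by HTRF in dPBS with 0.1% BSA and 0.05% Tween-20. Detection used europium cryptate anti-Ig antibody (1 nM final) and APC anti-His antibody (20 nM final) added on top of the binding reaction.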

CCCC[C@H]1C(=O)N(C)CC(=O)N[C@@H](CC(=O)O)C(=O)N[C@@H](C(C)C)C(=O)N(C)[C@@H](Cc2ccccc2)C(=O)N[C@@H](Cc2ccc(O)cc2)C(=O)N(C)CC(=O)N[C@@H](Cc2c[nH]c3ccccc23)C(=O)N[C@@H](Cc2ccc(O)cc2)C(=O)N[C@@H](CC(C)C)C(=O)N[C@H](C(=O)NCC(N)=O)CSCC(=O)N[C@@H](Cc2cccc(Cl)c2)C(=O)N(C)[C@@H](Cc2ccccc2)C(=O)N1C [Example 3086] ({CH2CO}-[Phe(3-Cl)][NMeF][NMeNle][Sar]DV[NMeF]Y[Sar]WYLCG-NH2; thioether N-13)
IC50 [1]: 0.158 to 4.71 nM | IC50 (Human PD-L1/PD-1): 0.385 to 6.74 nM

CCCC[C@H]1C(=O)N(C)CC(=O)N[C@@H](CC(=O)O)C(=O)N[C@@H](C(C)C)C(=O)N(C)[C@@H](Cc2ccccc2)C(=O)N[C@@H](Cc2ccc(O)cc2)C(=O)N(C)CC(=O)N[C@@H](Cc2c[nH]c3ccccc23)C(=O)N[C@@H](Cc2ccc(O)cc2)C(=O)N[C@@H](CC(C)C)C(=O)N[C@H](C(=O)NCC(N)=O)C(C)(C)SCC(=O)N[C@@H](Cc2ccccc2)C(=O)N(C)[C@@H](Cc2ccccc2)C(=O)N1C [Example 3087] (HELM PEPTIDE1{[O=C(C[*:3])[*:2]].F.[meF].[CCCC[C@@H](C(=O)[*:2])N(C)[*:1]].[Sar].D.V.[meF].Y.[Sar].W.Y.L.[Pen].G.[am]}$PEPTIDE1,PEPTIDE1,1:R3-14:R3$$$V2.0)
IC50 [1]: > 74.3 nM | IC50 (Human PD-L1/PD-1): > 30.5 nM

CCCC[C@H]1C(=O)N(C)CC(=O)N[C@@H](CC(=O)O)C(=O)N[C@@H](C(C)C)C(=O)N(C)[C@@H](Cc2ccccc2)C(=O)N[C@@H](Cc2ccc(O)cc2)C(=O)N(C)CC(=O)N[C@@H](Cc2c[nH]c3ccccc23)C(=O)N[C@@H](Cc2ccc(O)cc2)C(=O)N[C@@H](CC(C)C)C(=O)N[C@H](C(=O)NCC(N)=O)CSCC(=O)N[C@@H](Cc2ccc(OC)cc2)C(=O)N(C)[C@@H](Cc2ccccc2)C(=O)N1C [Example 3089] ({CH2CO}-Y(Me)[NMeF][NMeNle][Sar]DV[NMeF]Y[Sar]WYLCG-NH2; thioether N-13)
IC50 [1]: > 74.3 nM | IC50 (Human PD-L1/PD-1): > 30.5 nM

CCCC[C@H]1C(=O)N(C)CC(=O)N[C@@H](CC(=O)O)C(=O)N[C@@H](C(C)C)C(=O)N(C)[C@@H](Cc2ccccc2)C(=O)N[C@@H](Cc2ccc(O)cc2)C(=O)N(C)CC(=O)N[C@@H](Cc2c[nH]c3ccccc23)C(=O)N[C@@H](Cc2ccc(O)cc2)C(=O)N[C@@H](CC(C)C)C(=O)N[C@H](C(=O)NCC(N)=O)CSCC(=O)N[C@@H](Cc2c[nH]c3ccccc23)C(=O)N(C)[C@@H](Cc2ccccc2)C(=O)N1C [Example 3090] (HELM PEPTIDE1{[O=C(C[*:3])[*:2]].W.[meF].[CCCC[C@@H](C(=O)[*:2])N(C)[*:1]].[Sar].D.V.[meF].Y.[Sar].W.Y.L.C.G.[am]}$PEPTIDE1,PEPTIDE1,1:R3-14:R3$$$V2.0)
IC50 [1]: > 74.3 nM | IC50 (Human PD-L1/PD-1): > 30.5 nM

CCCC[C@H]1C(=O)N(C)CC(=O)N[C@@H](CC(=O)O)C(=O)N[C@@H](C(C)C)C(=O)N(C)[C@@H](Cc2ccccc2)C(=O)N[C@@H](Cc2ccc(O)cc2)C(=O)N(C)CC(=O)N[C@@H](Cc2c[nH]c3ccccc23)C(=O)N[C@@H](Cc2ccc(O)cc2)C(=O)N[C@@H](CC(C)C)C(=O)N[C@H](C(=O)NCC(N)=O)CSCC(=O)N[C@@H](Cc2cnc[nH]2)C(=O)N(C)[C@@H](Cc2ccccc2)C(=O)N1C [Example 3091] (HELM PEPTIDE1{[O=C(C[*:3])[*:2]].H.[meF].[CCCC[C@@H](C(=O)[*:2])N(C)[*:1]].[Sar].D.V.[meF].Y.[Sar].W.Y.L.C.G.[am]}$PEPTIDE1,PEPTIDE1,1:R3-14:R3$$$V2.0)
IC50 [1]: > 74.3 nM | IC50 (Human PD-L1/PD-1): > 30.5 nM

CCCC[C@H]1C(=O)N(C)CC(=O)N[C@@H](CC(=O)O)C(=O)N[C@@H](C(C)C)C(=O)N(C)[C@@H](Cc2ccccc2)C(=O)N[C@@H](Cc2ccc(O)cc2)C(=O)N(C)CC(=O)N[C@@H](Cc2c[nH]c3ccccc23)C(=O)N[C@@H](Cc2ccc(O)cc2)C(=O)N[C@@H](CC(C)C)C(=O)N[C@H](C(=O)NCC(N)=O)CSCC(=O)N[C@@H](Cc2cscn2)C(=O)N(C)[C@@H](Cc2ccccc2)C(=O)N1C [Example 3092] ({CH2CO}-[Ala(4-thiazolyl)][NMeF][NMeNle][Sar]DV[NMeF]Y[Sar]WYLCG-NH2; thioether N-13)
IC50 [1]: > 74.3 nM | IC50 (Human PD-L1/PD-1): > 30.5 nM

CCCC[C@H]1C(=O)N(C)CC(=O)N[C@@H](CC(=O)O)C(=O)N[C@@H](C(C)C)C(=O)N(C)[C@@H](Cc2ccccc2)C(=O)N[C@@H](Cc2ccc(O)cc2)C(=O)N(C)CC(=O)N[C@@H](Cc2c[nH]c3ccccc23)C(=O)N[C@@H](Cc2ccc(O)cc2)C(=O)N[C@@H](CC(C)C)C(=O)N[C@H](C(=O)NCC(N)=O)CSCC(=O)N[C@@H](Cc2ccc(C(F)(F)F)cc2)C(=O)N(C)[C@@H](Cc2ccccc2)C(=O)N1C [Example 3093] ({CH2CO}-[Phe(4-CF3)][NMeF][NMeNle][Sar]DV[NMeF]Y[Sar]WYLCG-NH2; thioether N-13)
IC50 [1]: 4.78 to 72.9 nM | IC50 (Human PD-L1/PD-1): > 30.5 nM

CCCC[C@H]1C(=O)N(C)CC(=O)N[C@@H](CC(=O)O)C(=O)N[C@@H](C(C)C)C(=O)N(C)[C@@H](Cc2ccccc2)C(=O)N[C@@H](Cc2ccc(O)cc2)C(=O)N(C)CC(=O)N[C@@H](Cc2c[nH]c3ccccc23)C(=O)N[C@@H](Cc2ccc(O)cc2)C(=O)N[C@@H](CC(C)C)C(=O)N[C@H](C(=O)NCC(N)=O)CSCC(=O)N[C@@H](Cc2ccc(C)cc2)C(=O)N(C)[C@@H](Cc2ccccc2)C(=O)N1C [Example 3094] ({CH2CO}-[Phe(4-Me)][NMeF][NMeNle][Sar]DV[NMeF]Y[Sar]WYLCG-NH2; thioether N-13)
IC50 [1]: 4.78 to 72.9 nM | IC50 (Human PD-L1/PD-1): 6.76 to 30.3 nM

CCCC[C@H]1C(=O)N(C)CC(=O)N[C@@H](CC(=O)O)C(=O)N[C@@H](C(C)C)C(=O)N(C)[C@@H](Cc2ccccc2)C(=O)N[C@@H](Cc2ccc(O)cc2)C(=O)N(C)CC(=O)N[C@@H](Cc2c[nH]c3ccccc23)C(=O)N[C@@H](Cc2ccc(O)cc2)C(=O)N[C@@H](CC(C)C)C(=O)N[C@H](C(=O)NCC(N)=O)CSCC(=O)N[C@@H](Cc2cccc(OC)c2)C(=O)N(C)[C@@H](Cc2ccccc2)C(=O)N1C [Example 3095] ({CH2CO}-[Phe(3-OMe)][NMeF][NMeNle][Sar]DV[NMeF]Y[Sar]WYLCG-NH2; thioether N-13)
IC50 [1]: 4.78 to 72.9 nM | IC50 (Human PD-L1/PD-1): 6.76 to 30.3 nM

CCCC[C@H]1C(=O)N(C)CC(=O)N[C@@H](CC(=O)O)C(=O)N[C@@H](C(C)C)C(=O)N(C)[C@@H](Cc2ccccc2)C(=O)N[C@@H](Cc2ccc(O)cc2)C(=O)N(C)CC(=O)N[C@@H](Cc2c[nH]c3ccccc23)C(=O)N[C@@H](Cc2ccc(O)cc2)C(=O)N[C@@H](CC2CCCCC2)C(=O)N[C@H](C(=O)NCC(N)=O)CSCC(=O)N[C@@H](Cc2ccccc2)C(=O)N(C)[C@@H](Cc2ccccc2)C(=O)N1C [Example 3096] (HELM PEPTIDE1{[O=C(C[*:3])[*:2]].F.[meF].[CCCC[C@@H](C(=O)[*:2])N(C)[*:1]].[Sar].D.V.[meF].Y.[Sar].W.Y.[Cha].C.G.[am]}$PEPTIDE1,PEPTIDE1,1:R3-14:R3$$$V2.0)
IC50 [1]: 4.78 to 72.9 nM | IC50 (Human PD-L1/PD-1): 6.76 to 30.3 nM
